Where a SMILES comes first, the peptide text is derived from it. Bridges are numbered along the chain shown (N, C = ends). [ ]: non-standard residue; d: D form. ξ: configuration not given here. NMePhe(3-Cl) = CN[C@@H](Cc1cccc(Cl)c1)C(=O)O; NMeW = CN[C@@H](Cc1c[nH]c2ccccc12)C(=O)O; NMeY = CN[C@@H](Cc1ccc(O)cc1)C(=O)O; PEG4 = NCCOCCOCCOCCOCCC(=O)O; ξαMeK = CC(N)(CCCCN)C(=O)O
Target: transferrin receptor (hTfR) (Homo sapiens, UniProt P02786)
Experiment: Intermolecular interaction evaluation test between transferrin receptor (hTfR) and peptide by surface plasmon resonance (SPR)
Assay type: binding
Settings: surface plasmon resonance, hTfR; read-out: KD value for hTfR by SPR (class symbol)
Outline: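 Receptor was Ni-captured and EDC/NHS-fixed on an NTA chip; running buffer HEPES pH 8.0 with NaCl, Tween 20, BSA and 1.0% DMSO.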

transferrin receptor (hTfR), sequence (P02786 whole entry): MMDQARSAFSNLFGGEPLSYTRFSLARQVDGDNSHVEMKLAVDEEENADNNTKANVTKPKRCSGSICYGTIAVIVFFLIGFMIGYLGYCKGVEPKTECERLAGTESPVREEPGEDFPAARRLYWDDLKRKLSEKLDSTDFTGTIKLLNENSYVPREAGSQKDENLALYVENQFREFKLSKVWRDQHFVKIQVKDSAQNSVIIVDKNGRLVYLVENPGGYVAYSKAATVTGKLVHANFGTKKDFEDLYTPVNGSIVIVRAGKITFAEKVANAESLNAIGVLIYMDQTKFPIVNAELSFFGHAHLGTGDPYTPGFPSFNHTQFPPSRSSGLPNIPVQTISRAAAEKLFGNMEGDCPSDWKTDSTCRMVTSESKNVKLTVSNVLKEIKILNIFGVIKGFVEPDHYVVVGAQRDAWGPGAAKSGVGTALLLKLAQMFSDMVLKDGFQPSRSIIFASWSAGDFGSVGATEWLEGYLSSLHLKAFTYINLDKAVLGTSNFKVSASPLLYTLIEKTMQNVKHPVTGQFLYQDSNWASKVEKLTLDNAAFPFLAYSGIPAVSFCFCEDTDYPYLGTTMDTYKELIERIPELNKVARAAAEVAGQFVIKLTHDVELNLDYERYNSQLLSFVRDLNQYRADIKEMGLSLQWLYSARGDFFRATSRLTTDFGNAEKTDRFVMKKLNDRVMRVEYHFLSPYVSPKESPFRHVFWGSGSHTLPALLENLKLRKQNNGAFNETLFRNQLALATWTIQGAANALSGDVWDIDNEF

| SMILES | Kd [nM] |
| --- | --- |
| CC[C@H](C)[C@@H]1NC(=O)[C@H](Cc2ccc(OC)cc2)NC(=O)[C@H](Cc2ccc(O)cc2)NC(=O)[C@H](CC(N)=O)NC(=O)[C@H](Cc2c[nH]c3ccccc23)N(C)C(=O)[C@H](C(C)C)NC(=O)[C@H](Cc2cccc(Cl)c2)N(C)C(=O)[C@H](C(C)C)NC(=O)[C@H](C)NC(=O)CSC[C@@H](C(N)=O)NC(=O)[C@H](Cc2ccc(O)cc2)N(C)C(=O)[C@H](Cc2ccccc2)NC(=O)[C@@H](CCCNC(=N)N)NC(=O)[C@H](CCCCN)NC(=O)[C@H]([C@@H](C)CC)NC1=O [compound 373] | 1 to 100 |
| CC[C@H](C)[C@@H]1NC(=O)[C@H](Cc2ccc(OC)cc2)NC(=O)[C@H](Cc2ccc(O)cc2)NC(=O)[C@H](CC(N)=O)NC(=O)[C@H](Cc2c[nH]c3ccccc23)N(C)C(=O)[C@H](C(C)C)NC(=O)[C@H](Cc2cccc(Cl)c2)N(C)C(=O)[C@H](C(C)C)NC(=O)[C@H](C)NC(=O)CSC[C@@H](C(=O)NCCOCCOCCOCCOCCC(N)=O)NC(=O)[C@H](Cc2ccc(O)cc2)N(C)C(=O)[C@H](Cc2ccccc2)NC(=O)[C@@H](CCCNC(=N)N)NC(=O)[C@H](CCCCN)NC(=O)[C@H]([C@@H](C)CC)NC1=O [compound 374] ({CH2CO}-AV[NMePhe(3-Cl)]V[NMeW]NYY(Me)IIK[dR]F[NMeY]C[PEG4]-NH2; thioether N-15) | 1 to 100 |
| CC[C@H](C)[C@@H]1NC(=O)[C@H](Cc2ccc(OC)cc2)NC(=O)[C@H](Cc2ccc(O)cc2)NC(=O)[C@H](CC(N)=O)NC(=O)[C@H](Cc2c[nH]c3ccccc23)N(C)C(=O)[C@H](C(C)C)NC(=O)[C@H](Cc2cccc(Cl)c2)N(C)C(=O)[C@H](C(C)C)NC(=O)[C@H](C)NC(=O)CSC[C@@H](C(=O)NCC(=O)NCC(=O)NCC(=O)NCC(=O)N[C@@H](CO)C(=O)N[C@@H](CO)C(=O)N[C@@H](CS)C(N)=O)NC(=O)[C@H](Cc2ccc(O)cc2)N(C)C(=O)[C@H](Cc2ccccc2)NC(=O)[C@@H](CCCNC(=N)N)NC(=O)[C@H](CCCCN)NC(=O)[C@H]([C@@H](C)CC)NC1=O [compound 376] | 1 to 100 |
| CC[C@H](C)[C@@H]1NC(=O)[C@H](Cc2ccc(OC)cc2)NC(=O)[C@H](Cc2ccc(O)cc2)NC(=O)[C@H](CC(N)=O)NC(=O)[C@H](Cc2c[nH]c3ccccc23)N(C)C(=O)[C@H](C(C)C)NC(=O)[C@H](Cc2cccc(Cl)c2)N(C)C(=O)[C@H](C(C)C)NC(=O)[C@H](C)NC(=O)CSC[C@@H](C(N)=O)NC(=O)[C@H](Cc2ccc(O)cc2)N(C)C(=O)[C@H](Cc2ccccc2)NC(=O)[C@@H](CCCNC(=N)N)NC(=O)[C@H](CCCCN)N(C)C(=O)[C@H]([C@@H](C)CC)NC1=O [compound 377] | 1 to 100 |
| CC[C@H](C)[C@@H]1NC(=O)[C@H](Cc2ccc(OC)cc2)NC(=O)[C@H](Cc2ccc(O)cc2)NC(=O)[C@H](CC(N)=O)NC(=O)[C@H](Cc2c[nH]c3ccccc23)N(C)C(=O)[C@H](C(C)C)NC(=O)[C@H](Cc2cccc(Cl)c2)N(C)C(=O)[C@H](C(C)C)NC(=O)[C@H](C)NC(=O)CSC[C@@H](C(N)=O)NC(=O)[C@H](Cc2ccc(O)cc2)N(C)C(=O)[C@H](Cc2ccccc2)NC(=O)[C@@H](C)NC(=O)[C@H](CCCCN)N(C)C(=O)[C@H]([C@@H](C)CC)NC1=O [compound 378] | 100 to 1000 |
| CC[C@H](C)[C@@H]1NC(=O)[C@H](Cc2ccc(OC)cc2)NC(=O)[C@H](Cc2ccc(O)cc2)NC(=O)[C@H](CC(N)=O)NC(=O)[C@H](Cc2c[nH]c3ccccc23)N(C)C(=O)[C@H](C(C)C)NC(=O)[C@H](Cc2cccc(Cl)c2)N(C)C(=O)[C@H](C(C)C)NC(=O)[C@H](C)NC(=O)CSC[C@@H](C(N)=O)NC(=O)[C@H](Cc2ccc(O)cc2)N(C)C(=O)[C@H](Cc2ccccc2)NC(=O)[C@H](CCCNC(=N)N)NC(=O)C(C)(CCCCN)NC(=O)[C@H]([C@@H](C)CC)NC1=O (stereo partly shown) [compound 379] | 1 to 100 |
| CC[C@H](C)[C@@H]1NC(=O)[C@H](Cc2ccc(OC)cc2)NC(=O)[C@H](Cc2ccc(O)cc2)NC(=O)[C@H](CC(N)=O)NC(=O)[C@H](Cc2c[nH]c3ccccc23)N(C)C(=O)[C@H](C(C)C)NC(=O)[C@H](Cc2cccc(Cl)c2)N(C)C(=O)[C@H](C(C)C)NC(=O)[C@H](C)NC(=O)CSC[C@@H](C(=O)NCCOCCOCCOCCOCCC(N)=O)NC(=O)[C@H](Cc2ccc(O)cc2)N(C)C(=O)[C@H](Cc2ccccc2)NC(=O)[C@@H](CCCNC(=N)N)NC(=O)C(C)(CCCCN)NC(=O)[C@H]([C@@H](C)CC)NC1=O (stereo partly shown) [compound 380] ({CH2CO}-AV[NMePhe(3-Cl)]V[NMeW]NYY(Me)II[ξαMeK][dR]F[NMeY]C[PEG4]-NH2; thioether N-15) | 1 to 100 |
| CC[C@H](C)[C@@H]1NC(=O)[C@H](Cc2ccc(OC)cc2)NC(=O)[C@H](Cc2ccc(O)cc2)NC(=O)[C@H](CC(N)=O)NC(=O)[C@H](Cc2c[nH]c3ccccc23)N(C)C(=O)[C@H](C(C)C)NC(=O)[C@H](Cc2cccc(Cl)c2)N(C)C(=O)[C@H](C(C)C)NC(=O)[C@H](C)NC(=O)CSC[C@@H](C(N)=O)NC(=O)[C@H](Cc2ccc(O)cc2)N(C)C(=O)[C@H](Cc2ccccc2)NC(=O)[C@H](CCCNC(=N)N)NC(=O)[C@H](CCCNC(=N)N)N(C)C(=O)[C@H]([C@@H](C)CC)NC1=O [compound 381] | 1 to 100 |
| CC[C@H](C)[C@@H]1NC(=O)[C@H](Cc2ccc(OC)cc2)NC(=O)[C@H](Cc2ccc(O)cc2)NC(=O)[C@H](CC(N)=O)NC(=O)[C@H](Cc2c[nH]c3ccccc23)N(C)C(=O)[C@H](C(C)C)NC(=O)[C@H](Cc2cccc(Cl)c2)N(C)C(=O)[C@H](C(C)C)NC(=O)[C@H](C)NC(=O)CSC[C@@H](C(N)=O)NC(=O)[C@H](Cc2ccc(O)cc2)N(C)C(=O)[C@H](Cc2ccccc2)NC(=O)[C@@H](CCCNC(=N)N)NC(=O)[C@H](CCCNC(=N)N)N(C)C(=O)[C@H]([C@@H](C)CC)NC1=O [compound 382] | 1 to 100 |
| CC[C@H](C)[C@@H]1NC(=O)[C@H](Cc2ccc(OC)cc2)NC(=O)[C@H](Cc2ccc(O)cc2)NC(=O)[C@H](CC(N)=O)NC(=O)[C@H](Cc2c[nH]c3ccccc23)N(C)C(=O)[C@H](C(C)C)NC(=O)[C@H](Cc2cccc(Cl)c2)N(C)C(=O)[C@H](C(C)C)NC(=O)[C@H](C)NC(=O)CSC[C@@H](C(N)=O)NC(=O)[C@H](Cc2ccc(O)cc2)N(C)C(=O)[C@H](Cc2ccccc2)NC(=O)[C@@H](C)NC(=O)[C@H](CCCNC(=N)N)N(C)C(=O)[C@H]([C@@H](C)CC)NC1=O [compound 383] | 100 to 1000 |
| CC[C@H](C)[C@@H]1NC(=O)[C@H](Cc2ccc(OC)cc2)NC(=O)[C@H](Cc2ccc(O)cc2)NC(=O)[C@H](CC(N)=O)NC(=O)[C@H](Cc2c[nH]c3ccccc23)N(C)C(=O)[C@H](C(C)C)NC(=O)[C@H](Cc2cccc(Cl)c2)N(C)C(=O)[C@H](C(C)C)NC(=O)[C@H](C)NC(=O)CSC[C@@H](C(N)=O)NC(=O)[C@H](Cc2ccc(O)cc2)N(C)C(=O)[C@H](Cc2ccccc2)NC(=O)[C@H](CCC(=O)NCCOCCOCCOCCOCCOCCOCCOCCOC)NC(=O)[C@H](CCCNC(=N)N)NC(=O)[C@H]([C@@H](C)CC)NC1=O [compound 384] | < 1 |
| CC[C@H](C)[C@@H]1NC(=O)[C@H](Cc2ccc(OC)cc2)NC(=O)[C@H](Cc2ccc(O)cc2)NC(=O)[C@H](CC(N)=O)NC(=O)[C@H](Cc2c[nH]c3ccccc23)N(C)C(=O)[C@H](C(C)C)NC(=O)[C@H](Cc2cccc(Cl)c2)N(C)C(=O)[C@H](C(C)C)NC(=O)[C@H](C)NC(=O)CSC[C@@H](C(N)=O)NC(=O)[C@H](Cc2ccc(O)cc2)N(C)C(=O)[C@H](Cc2ccccc2)NC(=O)[C@H](CCC(=O)N[C@H](CCC(=O)O)C(=O)O)NC(=O)[C@H](CCCNC(=N)N)NC(=O)[C@H]([C@@H](C)CC)NC1=O [compound 385] | 1 to 100 |
| CC[C@H](C)[C@@H]1NC(=O)[C@H](Cc2ccc(OC)cc2)NC(=O)[C@H](Cc2ccc(O)cc2)NC(=O)[C@H](CC(N)=O)NC(=O)[C@H](Cc2c[nH]c3ccccc23)N(C)C(=O)[C@H](C(C)C)NC(=O)[C@H](Cc2cccc(Cl)c2)N(C)C(=O)[C@H](C(C)C)NC(=O)[C@H](C)NC(=O)CSC[C@@H](C(N)=O)NC(=O)[C@H](Cc2ccc(O)cc2)N(C)C(=O)[C@H](Cc2ccccc2)NC(=O)[C@H](CCCNC(=N)N)NC(=O)[C@H](CCCNC(=N)N)NC(=O)[C@H]([C@@H](C)CC)NC1=O [compound 386] | 1 to 100 |
| CC[C@H](C)[C@@H]1NC(=O)[C@H](Cc2ccc(OC)cc2)NC(=O)[C@H](Cc2ccc(O)cc2)NC(=O)[C@H](CC(N)=O)NC(=O)[C@H](Cc2c[nH]c3ccccc23)N(C)C(=O)[C@H](C(C)C)NC(=O)[C@H](Cc2cccc(Cl)c2)N(C)C(=O)[C@H](C(C)C)NC(=O)[C@H](C)NC(=O)CSC[C@@H](C(=O)N[C@H](CCC(=O)O)C(=O)O)NC(=O)[C@H](Cc2ccc(O)cc2)N(C)C(=O)[C@H](Cc2ccccc2)NC(=O)[C@H](CCCNC(=N)N)NC(=O)[C@H](CCCNC(=N)N)NC(=O)[C@H]([C@@H](C)CC)NC1=O [compound 387] | 1 to 100 |
| CC[C@H](C)[C@@H]1NC(=O)[C@H](Cc2ccc(OC)cc2)NC(=O)[C@H](Cc2ccc(O)cc2)NC(=O)[C@H](CC(N)=O)NC(=O)[C@H](Cc2c[nH]c3ccccc23)N(C)C(=O)[C@H](C(C)C)NC(=O)[C@H](Cc2cccc(Cl)c2)N(C)C(=O)[C@H](C(C)C)NC(=O)[C@H](C)NC(=O)CSC[C@@H](C(N)=O)NC(=O)[C@H](Cc2ccc(O)cc2)N(C)C(=O)[C@H](CCC(=O)NCCOCCOCCOCCOCCOCCOCCOCCOC)NC(=O)[C@@H](CCCNC(=N)N)NC(=O)[C@H](CCCNC(=N)N)NC(=O)[C@H]([C@@H](C)CC)NC1=O [compound 389] | < 1 |
| CC[C@H](C)[C@@H]1NC(=O)[C@H](Cc2ccc(OC)cc2)NC(=O)[C@H](Cc2ccc(O)cc2)NC(=O)[C@H](CC(N)=O)NC(=O)[C@H](Cc2c[nH]c3ccccc23)N(C)C(=O)[C@H](C(C)C)NC(=O)[C@H](Cc2cccc(Cl)c2)N(C)C(=O)[C@H](C(C)C)NC(=O)[C@H](C)NC(=O)CSC[C@@H](C(N)=O)NC(=O)[C@H](Cc2ccc(O)cc2)N(C)C(=O)[C@H](CCC(=O)NCCCC[C@@H](NC)C(=O)O)NC(=O)[C@@H](CCCNC(=N)N)NC(=O)[C@H](CCCNC(=N)N)NC(=O)[C@H]([C@@H](C)CC)NC1=O [compound 390] | 1 to 100 |
